Assay results as given in PubChem BioAssay AID248 (DTP/NCI, 2004).
Toxic doses and inconclusive results are not listed. Cut-off read from the data, not from the text of the source: active = T/C of 150% or more; inactive = T/C below 125%.

Test system: L1210 leukemia ip in BDF1 mice, survival T/C
Assay: NCI In Vivo Anticancer Drug Screen. Data for tumor model L1210 Leukemia (intraperitoneal) in B6D2F1 (BDF1) mice
Details: endpoint: mean survival time, higher = longer survival
Outline: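 Tumor cells were implanted, animals were treated, and survival was followed. The result divides the treated measurement by the vehicle-control measurement.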

[1] = dose: 100.0 mg/kg/injection, schedule: Q04DX002 (ip), vehicle: saline
[2] = dose: 200.0 mg/kg/injection, schedule: Q04DX002 (ip), vehicle: saline
[3] = dose: 400.0 mg/kg/injection, schedule: Q04DX002 (ip), vehicle: saline
[4] = dose: 100.0 mg/kg/injection, schedule: Q01DX009 (ip), vehicle: Klucel (hydroxypropylcellulose) (HPC)
[5] = dose: 100.0 mg/kg/injection, schedule: Q04DX003 (ip), vehicle: Klucel (hydroxypropylcellulose) (HPC)
[6] = dose: 200.0 mg/kg/injection, schedule: Q01DX009 (ip), vehicle: Klucel (hydroxypropylcellulose) (HPC)
[7] = dose: 200.0 mg/kg/injection, schedule: Q04DX003 (ip), vehicle: Klucel (hydroxypropylcellulose) (HPC)
[8] = dose: 400.0 mg/kg/injection, schedule: Q04DX003 (ip), vehicle: Klucel (hydroxypropylcellulose) (HPC)
[9] = dose: 100.0 mg/kg/injection, schedule: Q01DX001 (ip), vehicle: Klucel (hydroxypropylcellulose) (HPC)
[10] = dose: 100.0 mg/kg/injection, schedule: Q04DX002 (ip), vehicle: Klucel (hydroxypropylcellulose) (HPC)
[11] = dose: 200.0 mg/kg/injection, schedule: Q04DX002 (ip), vehicle: Klucel (hydroxypropylcellulose) (HPC)
[12] = dose: 400.0 mg/kg/injection, schedule: Q04DX002 (ip), vehicle: Klucel (hydroxypropylcellulose) (HPC)
[13] = dose: 100.0 mg/kg/injection, schedule: Q04DX002 (ip), vehicle: saline with Tween-80
[14] = dose: 100.0 mg/kg/injection, schedule: Q01DX001 (ip), vehicle: saline
[15] = dose: 200.0 mg/kg/injection, schedule: Q01DX001 (ip), vehicle: saline
[16] = dose: 400.0 mg/kg/injection, schedule: Q01DX001 (ip), vehicle: saline
[17] = dose: 100.0 mg/kg/injection, schedule: Q04DX003 (ip), vehicle: saline with Tween-80
[18] = dose: 200.0 mg/kg/injection, schedule: Q04DX003 (ip), vehicle: saline with Tween-80
[19] = dose: 100.0 mg/kg/injection, schedule: Q01DX001 (ip), vehicle: other
[20] = dose: 400.0 mg/kg/injection, schedule: Q01DX001 (ip), vehicle: other
[21] = dose: 50.0 mg/kg/injection, schedule: Q01DX001 (ip), vehicle: saline

Measured: T/C

O=C1CCCC/C1=C\Sc1ccccc1
inactive: [1] 95 % of control | [2] 98 % of control | [3] 88 % of control

O=[N+]([O-])c1ccc(Oc2ccc[n+]([O-])c2)nc1
inactive: [4] 103 % of control | [5] 93 % of control | [6] 101 % of control | [7] 96 % of control | dose: 400.0 mg/kg/injection, schedule: Q01DX009 (ip), vehicle: Klucel (hydroxypropylcellulose) (HPC) 98 % of control | [8] 95 % of control

Cc1c(N=Nc2ccccc2)c(=O)[nH]n1-c1ccccc1
inactive: [9] 105 % of control | [5] 111 % of control | dose: 200.0 mg/kg/injection, schedule: Q01DX001 (ip), vehicle: Klucel (hydroxypropylcellulose) (HPC) 107 % of control | [7] 106 % of control | dose: 400.0 mg/kg/injection, schedule: Q01DX001 (ip), vehicle: Klucel (hydroxypropylcellulose) (HPC) 103 % of control | [8] 96 % of control

Clc1ccc(C(c2ccc(Cl)cc2)c2ccccn2)cc1
inactive: [4] 92 % of control | [5] 98 % of control | [6] 97 % of control | [7] 95 % of control | [8] 97 % of control

Cc1cc(Cl)ccc1OCC(=O)NCC(=O)O
inactive: [10] 90 % of control | [11] 97 % of control | [12] 105 % of control

CC(C)CCCC(C)CCCl (stereo not drawn)
inactive: [13] 93 % of control | dose: 200.0 mg/kg/injection, schedule: Q04DX002 (ip), vehicle: saline with Tween-80 86 % of control | dose: 400.0 mg/kg/injection, schedule: Q04DX002 (ip), vehicle: saline with Tween-80 107 % of control

CCN(CC)c1ccc(N(C(C)=O)C(C)=O)cc1
inactive: dose: 6.25 mg/kg/injection, schedule: Q01DX009 (ip), vehicle: saline with Tween-80 98 % of control | dose: 12.5 mg/kg/injection, schedule: Q01DX009 (ip), vehicle: saline with Tween-80 96 % of control | dose: 25.0 mg/kg/injection, schedule: Q01DX009 (ip), vehicle: saline with Tween-80 96 % of control

CCCCCCCCCCCCCCCC[N+](C)(C)C1=C([O-])C(=O)N(c2ccc(Cl)c(Cl)c2)C1=O
inactive: dose: 50.0 mg/kg/injection, schedule: Q04DX002 (ip), vehicle: saline with Tween-80 94 % of control | [13] 94 % of control

COc1ccccc1NC(=O)OCC#CCOC(=O)Nc1ccccc1OC
inactive: [5] 91 % of control | [7] 95 % of control | [8] 91 % of control

COc1cc2c(cc1OC)C(NNC(C)=O)CCCC2 (stereo not drawn)
inactive: [14] 97 % of control | [15] 97 % of control | [16] 103 % of control

[Se]c1ccnc([Se])n1
inactive: [17] 89 % of control | [18] 94 % of control

C[NH-].C[NH-].[I][Pt+2][I]
inactive: dose: 12.0 mg/kg/injection, schedule: Q04DX003 (ip), vehicle: other 118 % of control | dose: 17.0 mg/kg/injection, schedule: Q04DX003 (ip), vehicle: other 113 % of control | dose: 18.0 mg/kg/injection, schedule: Q04DX003 (ip), vehicle: water 102 % of control | dose: 25.0 mg/kg/injection, schedule: Q04DX003 (ip), vehicle: other 108 % of control | dose: 25.0 mg/kg/injection, schedule: Q04DX003 (ip), vehicle: water 102 % of control | dose: 37.0 mg/kg/injection, schedule: Q04DX003 (ip), vehicle: other 111 % of control | dose: 37.0 mg/kg/injection, schedule: Q04DX003 (ip), vehicle: water 115 % of control | dose: 44.0 mg/kg/injection, schedule: Q01DX001 (ip), vehicle: other 113 % of control | dose: 50.0 mg/kg/injection, schedule: Q04DX003 (ip), vehicle: other 110 % of control | dose: 67.0 mg/kg/injection, schedule: Q01DX001 (ip), vehicle: other 114 % of control | [19] 120 % of control

COc1ccc(CC2=[N+](C)CCc3cc(OC)c(OC)cc32)cc1OC
inactive: dose: 25.0 mg/kg/injection, schedule: Q01DX009 (ip), vehicle: other 101 % of control | dose: 50.0 mg/kg/injection, schedule: Q01DX009 (ip), vehicle: other 104 % of control | [19] 106 % of control | dose: 100.0 mg/kg/injection, schedule: Q01DX009 (ip), vehicle: other 106 % of control | [20] 106 % of control

Nc1ncnc(N)c1N(C=O)Cc1ccccc1
inactive: dose: 100.0 mg/kg/injection, schedule: Q01DX001 (ip), vehicle: acetone 96 % of control | dose: 200.0 mg/kg/injection, schedule: Q01DX001 (ip), vehicle: acetone 94 % of control | dose: 400.0 mg/kg/injection, schedule: Q01DX001 (ip), vehicle: acetone 91 % of control

CO/N=C1\C(C)(C)C(C)(C)C(C)(C)C1(C)SS(=O)(=O)O (stereo not drawn)
inactive: [1] 90 % of control | [2] 101 % of control | [3] 107 % of control

CCCC(Cc1cccs1)C(=O)O (stereo not drawn)
inactive: [19] 101 % of control | dose: 200.0 mg/kg/injection, schedule: Q01DX001 (ip), vehicle: other 97 % of control | [20] 97 % of control

Nc1nc(N)c(-c2ccc(Cl)c(Cl)c2)c(COc2ccc(NC(=O)c3ccc(S(=O)(=O)F)cc3)cc2Cl)n1
inactive: dose: 50.0 mg/kg/injection, schedule: Q01DX001 (ip), vehicle: Klucel (hydroxypropylcellulose) (HPC) 97 % of control | [9] 97 % of control

O=C(Nc1ccc(Cl)cc1)c1ccccc1
inactive: dose: 50.0 mg/kg/injection, schedule: Q01DX009 (ip), vehicle: Klucel (hydroxypropylcellulose) (HPC) 105 % of control | [4] 100 % of control | [5] 100 % of control | [6] 93 % of control | [7] 101 % of control | [8] 91 % of control

CCC(c1ccc(OC)cc1)C(CC)c1ccc(OCCN2CCCC2)cc1 (stereo not drawn)
inactive: dose: 12.5 mg/kg/injection, schedule: Q01DX001 (ip), vehicle: saline 94 % of control | dose: 25.0 mg/kg/injection, schedule: Q01DX001 (ip), vehicle: saline 94 % of control | [21] 95 % of control | [14] 97 % of control

Nc1ncnc2c1ncn2CCCN1C(=O)c2ccccc2C1=O
inactive: [17] 96 % of control | [18] 93 % of control | dose: 400.0 mg/kg/injection, schedule: Q04DX003 (ip), vehicle: saline with Tween-80 89 % of control

O=C1O/C(=C/c2ccccc2)C2CCCCC12 (stereo not drawn)
inactive: dose: 100.0 mg/kg/injection, schedule: Q01DX009 (ip), vehicle: saline 90 % of control | dose: 100.0 mg/kg/injection, schedule: Q04DX003 (ip), vehicle: saline 105 % of control | dose: 200.0 mg/kg/injection, schedule: Q01DX009 (ip), vehicle: saline 93 % of control | dose: 200.0 mg/kg/injection, schedule: Q04DX003 (ip), vehicle: saline 93 % of control | dose: 400.0 mg/kg/injection, schedule: Q01DX009 (ip), vehicle: saline 95 % of control | dose: 400.0 mg/kg/injection, schedule: Q04DX003 (ip), vehicle: saline 95 % of control

CCCCNC(=NC)c1ccc(NC(=O)Nc2ccc(NC(=O)Nc3ccc(C(=NC)NCCCC)cc3)cc2)cc1
inactive: dose: 2.0 mg/kg/injection, schedule: Q01DX Z (ip), vehicle: methylcellulose (MC) 103 % of control | dose: 3.9 mg/kg/injection, schedule: Q01DX Z (ip), vehicle: methylcellulose (MC) 96 % of control

COC1(OC)C2(Cl)C=CC1(Cl)C1CC12 (stereo not drawn)
inactive: [10] 97 % of control | [11] 107 % of control | [12] 100 % of control

O=C(Nc1cccc2cccnc12)C(F)(F)F
inactive: [21] 91 % of control | [14] 104 % of control | [15] 91 % of control | [16] 93 % of control

Cc1ccc(CNC2=C(Cl)C(=O)c3ccccc3C2=O)cc1C
inactive: dose: 12.5 mg/kg/injection, schedule: Q04DX002 (ip), vehicle: Klucel (hydroxypropylcellulose) (HPC) 92 % of control | dose: 25.0 mg/kg/injection, schedule: Q04DX002 (ip), vehicle: Klucel (hydroxypropylcellulose) (HPC) 87 % of control

OCN(CO)c1ccc2c(c1)Cc1cc(F)ccc1-2
inactive: dose: 100.0 mg/kg/injection, schedule: Q04DX003 (ip), vehicle: acetone 107 % of control | dose: 200.0 mg/kg/injection, schedule: Q04DX003 (ip), vehicle: acetone 98 % of control
